Here are results for 13 compounds from PubChem BioAssay (NCI).

Some test systems named below: A549 NSCLC; HCT-15 colon; NCI-H23 lung; OVCAR-8 ovarian; SF-268 CNS; SF-539 CNS; SK-OV-3 ovarian; M14 melanoma; BT-549 breast; DU-145 prostate.
Assay in all cases: NCI tumour cell line growth inhibition, 48 h

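All cell lines were grown in 96-well plates and treated with compound for 48 hours. At the GI50, growth is halved. TGI denotes the concentration required for complete inhibition of growth.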 A value given as a limit tells only on which side of the number the result lay.

As for `CC(=O)[CH-]C(C)=O.CC(=O)[CH-]C(C)=O.[O-]c1ccccc1.[O-]c1ccccc1.[Ti+4]`, the GI50 with A549 NSCLC, with HCT-15 colon, in the test with NCI-H23 lung, in the test with OVCAR-8 ovarian, in the test on SF-268 CNS and with SF-539 CNS was over 100 µM in each case. Moreover, in the test with SK-OV-3 ovarian, the GI50 is over 100 µM. The TGI in the test on A549 NSCLC, in the test with HCT-15 colon, in the test with NCI-H23 lung, with OVCAR-8 ovarian, in the test with SF-268 CNS and in the test with SF-539 CNS was over 100 µM throughout. This compound also returned a TGI in the test with SK-OV-3 ovarian of over 100 µM.

Take `Cc1ccccc1NC(=O)CSc1nnc(-c2ccc(N=Cc3ccc(Cl)cc3)cc2)o1`: the TGI in the test with A549 NSCLC, in the test on HCT-15 colon, in the test with M14 melanoma, in the test on NCI-H23 lung, with OVCAR-8 ovarian and in the test on SF-268 CNS was over 100 µM in each case. Further, the TGI in the test on SK-OV-3 ovarian is over 100 µM.

For the compound `O=C1NC(O)n2c(=O)[nH]c(=O)n21` (stereo not drawn), the TGI in the test with A549 NSCLC, in the test on HCT-15 colon, in the test on M14 melanoma, in the test on NCI-H23 lung, in the test with OVCAR-8 ovarian and in the test on SF-268 CNS was over 100 µM each time. For the same compound, the TGI in the test on SF-539 CNS and in the test with SK-OV-3 ovarian was over 100 µM throughout.

Regarding `c1ccc2c(c1)[nH]c1c2nc2ccccn21`, the TGI with A549 NSCLC, with HCT-15 colon, with M14 melanoma, in the test on NCI-H23 lung, in the test on OVCAR-8 ovarian and with SF-268 CNS was over 100 µM in each case. Further, the TGI with SF-539 CNS and with SK-OV-3 ovarian was over 100 µM each time.

For `COc1cc2c(cc1OCCNC(=O)/C=C1\C[C@H]3C=Nc4cc(OCc5ccccc5)c(OC)cc4C(=O)N3C1)N=C[C@@H]1CCCN1C2=O`, the GI50 in the test with A549 NSCLC is 22.3 µM; with BT-549 breast, 17 µM; in the test with DU-145 prostate, 19.4 µM; with HCT-15 colon, 37.4 µM; with M14 melanoma it was 10.4 µM; with NCI-H23 lung, 9.26 µM. For the same compound, the GI50 in the test on OVCAR-8 ovarian was 3.89 µM; with SF-268 CNS, 2.18 µM; in the test with SK-OV-3 ovarian, 25.1 µM. Also, the TGI with A549 NSCLC was 52.3 µM; with BT-549 breast it was over 100 µM; in the test on DU-145 prostate it was 37.3 µM; in the test with HCT-15 colon it was over 100 µM; in the test on M14 melanoma, 28.8 µM; in the test on NCI-H23 lung, 27 µM. Further, the TGI with OVCAR-8 ovarian was determined as 23.1 µM; in the test with SF-268 CNS, 7.03 µM; in the test on SK-OV-3 ovarian, 73.1 µM.

Turning to `Cc1cc(=O)[nH]c(NNC(C#N)c2cccc([N+](=O)[O-])c2)n1` (stereo not drawn), the TGI in the test with A549 NSCLC, in the test with HCT-15 colon, in the test on M14 melanoma, in the test with NCI-H23 lung, in the test with OVCAR-8 ovarian and in the test on SF-268 CNS was over 100 µM in each case. Further, the TGI with SF-539 CNS and in the test with SK-OV-3 ovarian was over 100 µM in each case.

`CC(C)(C)C#COC(=O)c1ccccc1`: the TGI with A549 NSCLC, with HCT-15 colon, in the test on M14 melanoma, in the test with NCI-H23 lung, in the test with OVCAR-8 ovarian and with SF-268 CNS was over 100 µM throughout. The TGI with SF-539 CNS and with SK-OV-3 ovarian was over 100 µM in each case.

For the compound `O=c1c2cccnc2ncn1CCCN1CCCCC1`, the TGI in the test with A549 NSCLC, in the test on M14 melanoma, in the test with NCI-H23 lung, with OVCAR-8 ovarian, in the test on SF-268 CNS and with SF-539 CNS was over 100 µM throughout. In the test with SK-OV-3 ovarian, this compound registered a TGI of over 100 µM.

As for `CCOc1ccc(NC(=O)/C(CC(=O)c2c[n+](=O)c3ccccc3n2[O-])=N\OCCCc2ccccc2)cc1`, the TGI in the test on A549 NSCLC, in the test on HCT-15 colon, in the test on M14 melanoma, in the test with NCI-H23 lung, in the test on OVCAR-8 ovarian and with SF-268 CNS was over 100 µM in each case. In addition, the TGI with SF-539 CNS and in the test with SK-OV-3 ovarian was over 100 µM in each case.

As for `NC(N)=N/N=C\c1ccc(OCc2ccccc2)cc1`, the GI50 is 3.31 µM in the test with A549 NSCLC; 10.8 µM with BT-549 breast; 2.71 µM in the test with DU-145 prostate; 1.97 µM in the test on HCT-15 colon; 9.84 µM in the test on NCI-H23 lung; 3.47 µM with SF-268 CNS. The values for the GI50 with SF-539 CNS and in the test on SK-OV-3 ovarian were 1.7 µM and 3.47 µM, respectively. The TGI is 13.2 µM in the test on A549 NSCLC; 23 µM with BT-549 breast; 8.45 µM in the test with DU-145 prostate; 5.37 µM in the test on HCT-15 colon; 24.6 µM with NCI-H23 lung; 17.4 µM with SF-268 CNS. In addition, the TGI in the test with SF-539 CNS was determined as 4.06 µM; in the test with SK-OV-3 ovarian it was 14.7 µM.

For `O=C1CC23CCCCCCCCCCC2(C1)CC(=O)C3` (stereo not drawn), the TGI is over 100 µM in the test on A549 NSCLC; over 100 µM in the test on HCT-15 colon; 44.4 µM in the test with M14 melanoma; over 100 µM in the test on NCI-H23 lung; over 100 µM in the test with OVCAR-8 ovarian; over 100 µM in the test with SF-268 CNS. The TGI was over 100 µM with SF-539 CNS and 65.2 µM in the test with SK-OV-3 ovarian.

Consider `O=C(Nc1ccc(Cl)cc1C(F)(F)F)C(=O)Nn1c(=S)[nH]c2ccccc2c1=O`, for which the TGI in the test on A549 NSCLC, in the test on BT-549 breast, with HCT-15 colon, with M14 melanoma, in the test on NCI-H23 lung and with OVCAR-8 ovarian was over 100 µM throughout. The TGI in the test on SF-268 CNS, with SF-539 CNS and in the test on SK-OV-3 ovarian was over 100 µM throughout.

In the case of `COC(=O)C(C(=O)C(=O)Nc1c(C)cccc1C(C)(C)C)c1nc2ccc(Cl)cc2[nH]c1=O` (stereo not drawn), the TGI in the test with A549 NSCLC, with BT-549 breast, in the test on HCT-15 colon, with M14 melanoma, in the test with NCI-H23 lung and in the test on OVCAR-8 ovarian was over 100 µM in each case. Also, the TGI in the test with SF-268 CNS, in the test with SF-539 CNS and in the test with SK-OV-3 ovarian was over 100 µM in each case.
